Here are results for eleven compounds from patent US5681823A, “P^1, P^4 -dithio-P^2 -P^3 -monochloromethylene 5', 5'"-diadenosine P^1, P^4 -tetraphosphate as antithrombotic agent” (PRP Inc., priority 1996, dated 1997).

Entries after “also recorded” stand apart in the source; their conditions may differ. Where two headings read alike, the source gives them in different places. Where only a bound is given, the exact number is not on record here.

Data set [1] deals with platelet cAMP level. The data set is described as follows: Level of intracellular platelet cAMP (etheno-cAMP, HPLC). In kind it is cell-based, human. The settings on record: forskolin 101 μM as printed, positive control, in words.
In data set [2] the test system is platelet cAMP level. The data set is described as above. The settings on record: 10 μM agent, 37° C., 5 min; control 31.6. The class given is cell-based, human. The method, then:
(§1) Unless otherwise provided below, the experimental procedures were performed according to the procedures provided in U.S. Pat. No. 5,049.550 (Zamecnik '550), the entire contents of which are incorporated herein by reference. Some alternative procedures (e.g., release reaction, PF3 assays) and a number of additional studies also are provided (e.g., cytoplasmic calcium mobilization, fibrinogen binding site, agonists other than ADP, platelet cAMP and distribution of CHCl-AP4 A into blood components). Blood was collected in a 0.1 volume of 3.8% sodium citrate from healthy human volunteers who had abstained from antiplatelet agents for at least 10 days. Platelet rich plasma (PRP) was separated by a gradual centrifugation and adjusted to 3.3×10^8 platelets per ml plasma. PRP has been utilized in the Examples unless otherwise stated.
The inhibitory effect of cAMP on platelet aggregation has been known as a counteraction of calcium ion mobilization. Accordingly, the inhibitory effects of the agents with respect to a cAMP mediated mechanism was tested. PRP was incubated with saline (control), agents (at 20 μM and 100 μM), or forskolin (10 μM) at 37° C. for 5 min. After incubation, extracts were made using Ba(OH)2 and ZnSO4. Cyclic AMP in the extracts was converted into the etheno-cAMP derivative, and the levels were estimated by HPLC using a fluorescence detector (W. Wojcik et al., J. Cyclic Nucleotide Res. 7:27-35 (1981)). The level of cAMP in an unknown extract was determined by extrapolation from a standard graph. A linear relationship between the cAMP level in the extracted samples and fluorescence detection was observed. […] However, this increase may not be a specific effect. Although adenosine contamination in the tested AP4 A agents was not detected, it is possible that either cellular adenosine nucleotide metabolic products or contaminated adenosine in the tested agents may be responsible for the elevated cAMP level.

The test system of data set [3] is Cytoplasmic Calcium Ion (Ca^++) Mobilization in platelets. Kind of data set: Cytoplasmic calcium ion mobilization in platelets (Indo-1, flow cytometer). In kind it is cell-based, human. The settings on record: unstimulated peak 133. Here is the method:
as §1
An increment of cytoplasmic Ca^++ in the platelets represents an activated state. Indo-1 acetomethyl ester (Indo-1) commonly has been utilized as the reagent to detect intracellular free Ca^++. Indo-1 reacts with Ca^++ and produces fluorescence which can be monitored in a dual wavelength (408/485) flow cytometer (Coulter EPIC Systems). Platelets were incubated with Indo-1 at 37° C. for 45 min. Excess Indo-1 in the medium was removed by gel-filtration method. Indo-1-loaded platelets were then activated by 6.7 μM ADP in the absence or presence of thio-CHCl-AP4 A (3.3 μM) or CHCl-AP4 A (6.7 μM). Fluorescence intensity of the platelets was monitored and plotted against platelet number. The histograms generated from the plots were analyzed. Unstimulated platelets registered fluorescence intensity (FI) between 42 and 250 with a peak at 133 (base line control).
(In general: In flow cytometry, cells or beads pass a laser one at a time.)

Data set [4] deals with ADP-induced platelet aggregation. The note with it: Zamecnik '550 Table 3; cited from earlier work.
For data set [5] the test system is unchanged. The note with it: cited from earlier work.
The subject of data set [6] is ADP-induced platelet aggregation; thrombus formation. The note with it: in words; cited from earlier work.
For data set [7] the following is noted: cited from earlier work.
For data set [8] the following is noted: cited from earlier work. This is another data set of the same source.
For data set [9] the following is noted: in words, cited from earlier work; for side effects / bleeding risk: clinical.
The test system of data set [10] is ADP-induced platelet aggregation. The data set is described as follows: ADP-induced platelet aggregation in platelet-rich plasma (turbidimetric method of Born, aggregometer). In kind it is cell-based, human. The note with it: ADP-induced aggregation, PRP, mean of three (*) or two determinations. The method, then: as §1
An initial screening was performed for inhibitory effects of several agents (including, e.g., thio-CHCl-AP4 A and CHCl-AP4 A as reference agent)) on platelet aggregation induced by ADP. Platelet aggregation was measured with platelet-rich plasma (PKP) by the turbidimetric method of Born (J. Physiol. 162:67, 1962) in an aggregometer (Chrono-log, Model 530 VS). Platelet aggregation induced by 5 μM ADP in the absence or presence of 5 μM agents was examined. […] The IC50 value of the CHCl-AP4 A (reference agent) was consistent with the value reported previously (P. Zamecnik et al., Proc. Nat'l. Acad. Sci. USA 89:2370-2373 (1992)).

For the compound `C=C[C@@]1(C)CC(=O)[C@]2(O)[C@@]3(C)[C@@H](O)CCC(C)(C)[C@@H]3[C@H](O)[C@H](OC(C)=O)[C@@]2(C)O1` [Forskolin], the “effect on platelet cAMP” value with platelet cAMP level [1] was “marked increase”. Also, the “platelet cAMP level” value with platelet cAMP level [2] was 124.4 nM. Take `CNc1ccc2oc(C[C@H]3O[C@@]4(CC[C@H]3C)O[C@H]([C@H](C)C(=O)c3ccc[nH]3)[C@H](C)C[C@H]4C)nc2c1C(=O)O` [A23187]: the “fluorescence intensity (FI), peak” value in data set [3] (2 μM A23187, positive control) worked out at 530. With `Nc1ncnc2c1ncn2[C@@H]1O[C@H](COP(=O)(O)OP(=O)(O)C(F)P(=O)(O)OP(=O)(O)OC[C@H]2O[C@@H](n3cnc4c(N)ncnc43)[C@H](O)[C@@H]2O)[C@@H](O)[C@H]1O` (some centres unmarked) [AppCHFppA], the ID10 in data set [4] was 4 µM. As for `Nc1ncnc2c1ncn2[C@@H]1O[C@H](COP(=O)(O)OP(=O)(O)OP(=O)(O)OP(=O)(O)OC[C@H]2O[C@@H](n3cnc4c(N)ncnc43)[C@H](O)[C@@H]2O)[C@@H](O)[C@H]1O` [AP4 A, diadenosine 5', 5'"-P^1,P^4 -tetraphosphate], in data set [5] (even when aggregation has progressed to 60% completion), the “dispersion of aggregated platelets” value is “immediate dispersion of aggregated platelets”. Moreover, in data set [5] (in vitro, in words), the “effect on ADP-induced platelet aggregation” value is reported as “competitive inhibitor; also recorded: competitively inhibits”. In addition, in data set [6], the “effect on ADP-induced platelet aggregation on administration to a mammal” value is “inhibit markedly ADP-induced platelet aggregation” and the “effect on thrombus formation on administration to a mammal” value is listed as “inhibit thrombus formation”. Besides, in data set [7] (^32 P-labeled, normal plasma, ten minutes, 37° C., 10 min), the “AP4 A degraded in plasma” value was 90%. Also, the “degradation products in plasma” value in [7] is “degraded to AMP and ATP (adenosine triphosphate)”. Moreover, in data set [8] (in vivo and ex vivo), the “half-life in rabbit blood” value is reported as “short half-life”. Also, in [8] (rabbit blood), the “ex vivo decay compared to in vivo clearance” value is on record as “significantly longer”. With `Nc1ncnc2c1ncn2[C@@H]1O[C@H](COP(=O)(O)OP(=O)(O)O)[C@@H](O)[C@H]1O` [ADP, adenosine diphosphate], the “fluorescence intensity (FI), peak” value in data set [3] (6.7 μM ADP, no agent) came to 158.

Regarding `Clc1ccccc1CN1CCc2sccc2C1` [ticlopidine], the “side effects / bleeding risk” value in data set [9] was “substantial side effects”. As to `Nc1ncnc2c1ncn2[C@H]1C[C@H](O)[C@@H](COP(=O)(O)OP(=O)(O)C(Cl)P(=O)(O)OP(=O)(O)OC[C@H]2O[C@@H](n3cnc4c(N)ncnc43)C[C@@H]2O)O1` (some centres unmarked) [CHCl-dAP4 dA], the IC50 – broadly, the point on the concentration scale where inhibition reaches its midpoint – in [10] (read-out: IC50) is greater than 100 µM. On to `Nc1ncnc2c1ncn2[C@@H]1O[C@H](COP(=O)(O)OP(=O)(O)OP(=O)(O)OC[C@H]2O[C@@H](n3cnc4c(N)ncnc43)[C@H](O)[C@@H]2O)[C@@H](O)[C@H]1O` [AP3 A, diadenosine 5', 5'"-p^1, p^3 -triphosphate], for which the “effect on platelet aggregation” value in [5] (AP3 A, in words) was “gradual aggregation of platelets”. The “degradation products in plasma” value in data set [7] was “hydrolyzed in plasma to AMP (adenosine monophosphate) and ADP (adenosine diphosphate)”. As for `CC(=O)Oc1ccccc1C(=O)O` [aspirin], in [9], the clinical effectiveness result is listed as “useful but limited effectiveness”.

For the compound `Nc1ncnc2c1ncn2[C@H]1C[C@H](O)[C@@H](COP(O)(=S)OP(=O)(O)C(Cl)P(=O)(O)OP(O)(=S)OC[C@H]2O[C@@H](n3cnc4c(N)ncnc43)C[C@@H]2O)O1` (some centres unmarked) [Thio-CHCl-dAP4 dA], the 50% inhibitory concentration (IC50) in data set [10] amounted to 9.22 µM. On to “ReoPro: newer drugs, such as ReoPro (7E3)”, for which, in data set [9], the “side effects / bleeding risk” value is recorded as “increased risk of major bleeding”.
